Measured values published in patent publication US20220387544A1, “NOVEL THERAPEUTIC USE” (Artios Pharma Limited, priority 2019, published 2022).

Key:
Format in all cases: cell-based
[1] = system: parental and C20orf196 KO SUM149 tumouroids; test: Tumouroid assay, parental vs C20orf196 KO SUM149; settings: in C20orf196 KO cells when compared with olaparib
Description: Cells were seeded into a hydrogel containing 10% rat tail collagen (OcellO) in 384-well high content imaging microplates at varying densities to compensate for differential growth characteristics (Table 2).
24 hours after seeding, test compounds and olaparib (Selleckchem) were added in an eight-point dose range with a one in three serial dilution (maximum concentration 12 μM for all compounds, except 30 μM compound A for REV7 KO cell experiments). Dimethyl sulfoxide (DMSO) and 1 μM staurosporine (Med Chem Express) treatments were included as negative and positive controls, respectively. All treatments were carried out in quadruplicate.
After seven or fourteen days of treatment for 20orf196 KO and REV7 KO experiments respectively, cells were fixed with 5× Fix & Stain solution (OcellO) for 16 hours at 4° C. to stain both the nuclei using Hoechst 33258 and the actin cytoskeleton using Rhodamine-Phalloidin. Cells were washed four times with phosphate-buffered saline (PBS), and plates were imaged and analysed using OcellO's three-dimensional image analysis software (Ominer). For each well, two channels of 16-bit image stacks were collected using an automated microscope system: Molecular Devices ImageXpress Micro XLS, equipped with a 4× magnification/0.2NA PlanApo objective. For each image slice (n=47), pixel size was 0.324 μm and step size in z-direction was 50 μm.
Parental or C20orf196 KO SUM149 cells were seeded into a collagen-containing hydrogel in 384-well plates and incubated overnight. The resulting tumouroids were treated with a serial dilution of Polθ inhibitor or olaparib for seven days, fixed, and stained to visualise DNA and F-actin. Plates were imaged, and tumouroid size was measured using OcellO's three-dimensional image analysis software.
(§1) Parental or C20orf196 KO SUM149 cells were seeded into a collagen-containing hydrogel in 384-well plates and incubated overnight. The resulting tumouroids were treated with a serial dilution of Polθ inhibitor or olaparib for seven days, fixed, and stained to visualise DNA and F-actin. Plates were imaged, and the number of nuclei per tumouroid was counted using OcellO's three-dimensional image analysis software.
as §1, with “with” for “with a serial dilution of”, “inhibitor, olaparib” for “inhibitor”, “control compound (at the concentrations indicated)” for “olaparib”, “fraction” for “number”, “without an associated actin cytoskeleton” for “per tumouroid”, “calculated” for “counted”

[2] = system: RPE1 TP53-/-BRCA1-/-cells; test: siRNA screen for Compound A sensitivity in BRCA1 defective RPE1; settings: for Drug Effect (DE) Z-score: BRCA1 defective RPE1
Text: An siRNA library was purchased from Dharmacon. Each well contained a SMART pool of four distinct siRNA species targeting different sequences of the target transcript, as well as individual siRNA targeting components of the Shieldin complex. Each plate was supplemented with negative siCONTROL (12 wells; Dharmacon) and positive control (four wells, siPLK1, Dharmacon). RNAi screening conditions were optimized and raw CellTitre-Glo (Promega) luminescent viability readings were generated as previously described (Lord et al DNA Repair (2008) 7, 2010-2019). Compound A or vehicle (DMSO) was added 24 h after transfection at 5 μM (CAL51) or 10 μM (RPE TP53-/-BRCA1-defective) concentration in media and cells were exposed for 5 days. Statistical analysis of the siRNA screen was performed as described elsewhere (Lord et al DNA Repair (2008) 7, 2010-2019). In brief, luminescence values from CellTitre-Glo assays in Compound A and DMSO exposed cells were log2 transformed and then normalized to plate median (PM) effects. Drug Effect (DE) scores were calculated from PM normalized data using the equation: DE=(log2 PM normalized signal of siRNA in the presence of Compound A)—(log2 PM normalized signal of siRNA in the absence of Compound A). DE values were then Z-score standardized according to screen median and median absolute deviation values.
To discover genes that are synthetic lethal with Polθ inhibitor in cells lacking DSBR through homologous recombination, an siRNA screen using 1418 siRNAs was performed using BRCA1 defective RPE1 TP53-/-BRCA1-/-cells. The screen was performed and analysed as described in FIG. 8 for the CAL51 screen. REV7 and SHLD2 (FAM35A) were two of the top hits (FIG. 8(a)), confirming the link between SHLD component defects and Polθ inhibitor sensitivity.

[3] = system: parental and SHLD2 KO HCC1395 cells; test: Colony formation assay, HCC1395; settings: SHLD2 KO vs parental HCC1395 cells, colony solubilisation protocol
Description: 1 mL of cells were seeded per well in a 24-well plate in triplicate and incubated overnight at 37° C. Cells were treated with a seven-point dose response curve with a one-in-three serial dilution of compound for the timepoints listed in Table 5. For MDA-MB-436 cells media was replenished every five days.
Cells were fixed with 70% ethanol for 20 minutes at room temperature with shaking. Cells were then stained with 0.04% Crystal Violet (Sigma Aldrich) for 20 minutes at room temperature with shaking. Cells were washed 6 times with water and air-dried overnight.
Plates were imaged using a Gelcount (Oxford Optronix), and colonies were counted using parameters optimized for each cell line. […] Colonies were solubilized using 10% acetic acid (VWR) for 30 minutes, absorbance at 595 nm was read using the Clariostar plate reader (BMG Labtech), and blank correction was applied. Relative Survival was calculated by normalization of compound treated wells to DMSO treated wells.
The effect of a DNA polymerase theta […] inhibitor (Compound A) and the PARP inhibitor olaparib on the survival of parental and SHLD2 deleted (SHLD2 KO) HCC1395 cells was investigated by colony formation assay. Briefly, each population was seeded at low density, incubated with different concentrations of the compound and the relative survival normalized to untreated cells was measured with the colony solubilisation protocol.

## Cc1cccc(N(C)C(=O)[C@@H]2[C@H](O)CCN2c2nc(C)cc(C(F)(F)F)c2C#N)c1 [Compound A, (2S,3R)-1-(3-cyano-6-methyl-4-(trifluoromethyl)pyridin-2-yl)-3-hydroxy-N-methyl-N-(m-tolyl)pyrrolidine-2-carboxamide]
[1]
  cell death: significantly more cell death
  reduction in the number of nuclei per tumoroid: greater reduction in the number of nuclei per tumoroid
  reduction in tumoroid size: greater reduction in tumoroid size
[2]; BRCA1 defective RPE1 cells, 10 μM, 5 days
  sensitivity caused by siRNAs targeting FAM35A or REV7 (DE<−2): caused sensitivity
[2]; non-targeting siRNA Allstar control
  Drug Effect (DE) Z-score: 1.3
[2]; non-targeting siRNA siCON1
  Drug Effect (DE) Z-score: −0.8
[2]; non-targeting siRNA siCON2
  Drug Effect (DE) Z-score: −0.6
[3]
  sensitivity by relative survival: significantly more sensitive
